Measured values published in patent US10954269B2, “Anti-inflammatory tripeptides” (Dr. August Wolff Gmbh & Co. KG Arzneimittel, priority 2013, dated 2021).

What was measured:
Conditions in all cases: substance 10^−9M
primary human T-cells = test: Cytokine secretion on protein level in activated primary human T-cells (13-plex FACS / Luminex, supernatant); assay type: cell-based
Method in brief: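 PMA/Ionomycin- or IFN-γ-activated cells (48 h) treated with tripeptides; supernatant 13-plex FACS at 48 h and 72 h post-stimulation. Luminex run: PMA/Ionomycin plus compound at 10^−7, 10^−9, 10^−11 M; IFN-γ, IL-17, IL-10 for T cells, IFN-γ for HaCaT.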

[1] = test system: human keratinocyte cell line (HaCaT); test: Cytokine secretion on protein level in activated human keratinocyte cell line HaCaT (13-plex FACS / Luminex, supernatant); assay type: cell-based
Method in brief: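 First, T-cells are isolated from healthy donors' blood. Next, they and HaCaT keratinocytes are activated for 48 h with PMA/Ionomycin or IFN-γ in the presence of tripeptides. Finally, secreted cytokines are quantified in supernatants by 13-plex FACS at 48 and 72 h.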

primary murine T-cells = test: Cytokine secretion on protein level in activated primary murine T-cells (13-plex FACS / Luminex, supernatant); assay type: cell-based, C57BL/6 mice
Method in brief: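 T-cells from secondary lymphatic organs of naïve C57BL/6 mice, stimulated with PMA/Ionomycin or IFN-γ; supernatant cytokines measured by 13-plex FACS 48 h and 72 h after stimulation. In another run, PMA/Ionomycin-stimulated cells received compounds at 10^−7, 10^−9 and 10^−11 M, with IFN-γ, IL-17 and IL-10 measured by Luminex.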

[2] = primary human T-cells stimulated with IFN-γ
[3] = primary human T-cells stimulated with PBS
[4] = primary human T-cells stimulated with PMA/Ionomycin
[5] = HaCaT stimulated with PMA/Ionomycin
[6] = primary murine T-cells stimulated with IFN-γ
[7] = primary murine T-cells stimulated with PBS
[8] = primary murine T-cells stimulated with PMA/Ionomycin

C[C@@H]1C[C@H]2[C@@H]3CCC4=CC(=O)C=C[C@]4(C)[C@@]3(F)[C@@H](O)C[C@]2(C)[C@@]1(O)C(=O)CO [dexamethasone, reference compound]
IL-1 cytokine concentration (primary human T-cells; [2]): 0 pg/mL
IL-2 cytokine concentration (primary human T-cells; [2]): 0 pg/mL
IL-4 cytokine concentration (primary human T-cells; [2]): 0 pg/mL
IL-5 cytokine concentration (primary human T-cells; [2]): 0 pg/mL
IL-6 cytokine concentration (primary human T-cells; [2]): 56.47 pg/mL
IL-9 cytokine concentration (primary human T-cells; [2]): 0 pg/mL
IL-10 cytokine concentration (primary human T-cells; [2]): 0 pg/mL
IL-12 cytokine concentration (primary human T-cells; [2]): 0 pg/mL
IL-13 cytokine concentration (primary human T-cells; [2]): 0 pg/mL
IL-17 cytokine concentration (primary human T-cells; [2]): 0 pg/mL
IL-22 cytokine concentration (primary human T-cells; [2]): 0 pg/mL
TNF-α cytokine concentration (primary human T-cells; [2]): 0 pg/mL
IFN-γ cytokine concentration (primary human T-cells; [3]): 0 pg/mL
IL-1 cytokine concentration (primary human T-cells; [3]): 0 pg/mL
IL-2 cytokine concentration (primary human T-cells; [3]): 0 pg/mL
IL-4 cytokine concentration (primary human T-cells; [3]): 0 pg/mL
IL-5 cytokine concentration (primary human T-cells; [3]): 0 pg/mL
IL-6 cytokine concentration (primary human T-cells; [3]): 80.63 pg/mL
IL-9 cytokine concentration (primary human T-cells; [3]): 13.05 pg/mL
IL-10 cytokine concentration (primary human T-cells; [3]): 45.66 pg/mL
IL-12 cytokine concentration (primary human T-cells; [3]): 0 pg/mL
IL-13 cytokine concentration (primary human T-cells; [3]): 55.12 pg/mL
IL-17 cytokine concentration (primary human T-cells; [3]): 69.45 pg/mL
IL-22 cytokine concentration (primary human T-cells; [3]): 0 pg/mL
TNF-a cytokine concentration (primary human T-cells; [3]): 41.45 pg/mL
IFN-γ cytokine concentration (primary human T-cells; [4]): 888.61 pg/mL
IL-1 cytokine concentration (primary human T-cells; [4]): 448.69 pg/mL
IL-2 cytokine concentration (primary human T-cells; [4]): 2198.45 pg/mL
IL-4 cytokine concentration (primary human T-cells; [4]): 79.02 pg/mL
IL-5 cytokine concentration (primary human T-cells; [4]): 297.13 pg/mL
IL-6 cytokine concentration (primary human T-cells; [4]): 1078.6 pg/mL
IL-9 cytokine concentration (primary human T-cells; [4]): 392.74 pg/mL
IL-10 cytokine concentration (primary human T-cells; [4]): 799.85 pg/mL
IL-12 cytokine concentration (primary human T-cells; [4]): 0 pg/mL
IL-13 cytokine concentration (primary human T-cells; [4]): 1099.59 pg/mL
IL-17 cytokine concentration (primary human T-cells; [4]): 1134.18 pg/mL
IL-22 cytokine concentration (primary human T-cells; [4]): 0 pg/mL
TNF-a cytokine concentration (primary human T-cells; [4]): 3264.56 pg/mL
IL-1 cytokine concentration ([1]; HaCaT stimulated with IFN-γ): 0 pg/mL
IL-2 cytokine concentration ([1]; HaCaT stimulated with IFN-γ): 0 pg/mL
IL-4 cytokine concentration ([1]; HaCaT stimulated with IFN-γ): 39.78 pg/mL
IL-5 cytokine concentration ([1]; HaCaT stimulated with IFN-γ): 0 pg/mL
IL-6 cytokine concentration ([1]; HaCaT stimulated with IFN-γ): 204.99 pg/mL
IL-9 cytokine concentration ([1]; HaCaT stimulated with IFN-γ): 0 pg/mL
IL-10 cytokine concentration ([1]; HaCaT stimulated with IFN-γ): 0 pg/mL
IL-12 cytokine concentration ([1]; HaCaT stimulated with IFN-γ): 0 pg/mL
IL-13 cytokine concentration ([1]; HaCaT stimulated with IFN-γ): 0 pg/mL
IL-17 cytokine concentration ([1]; HaCaT stimulated with IFN-γ): 69.14 pg/mL
IL-22 cytokine concentration ([1]; HaCaT stimulated with IFN-γ): 0 pg/mL
TNF-α cytokine concentration ([1]; HaCaT stimulated with IFN-γ): 0 pg/mL
IFN-γ cytokine concentration ([1]; HaCaT stimulated with PBS): 12.98 pg/mL
IL-1 cytokine concentration ([1]; HaCaT stimulated with PBS): 0 pg/mL
IL-2 cytokine concentration ([1]; HaCaT stimulated with PBS): 0 pg/mL
IL-4 cytokine concentration ([1]; HaCaT stimulated with PBS): 133.98 pg/mL
IL-5 cytokine concentration ([1]; HaCaT stimulated with PBS): 0 pg/mL
IL-6 cytokine concentration ([1]; HaCaT stimulated with PBS): 44.79 pg/mL
IL-9 cytokine concentration ([1]; HaCaT stimulated with PBS): 0 pg/mL
IL-10 cytokine concentration ([1]; HaCaT stimulated with PBS): 30.89 pg/mL
IL-12 cytokine concentration ([1]; HaCaT stimulated with PBS): 0 pg/mL
IL-13 cytokine concentration ([1]; HaCaT stimulated with PBS): 0 pg/mL
IL-17 cytokine concentration ([1]; HaCaT stimulated with PBS): 0 pg/mL
IL-22 cytokine concentration ([1]; HaCaT stimulated with PBS): 0 pg/mL
TNF-α cytokine concentration ([1]; HaCaT stimulated with PBS): 0 pg/mL
IFN-γ cytokine concentration [1, 5]: 0 pg/mL
IL-1 cytokine concentration [1, 5]: 0 pg/mL
IL-2 cytokine concentration [1, 5]: 0 pg/mL
IL-4 cytokine concentration [1, 5]: 91.48 pg/mL
IL-5 cytokine concentration [1, 5]: 0 pg/mL
IL-6 cytokine concentration [1, 5]: 124.98 pg/mL
IL-9 cytokine concentration [1, 5]: 0 pg/mL
IL-10 cytokine concentration [1, 5]: 54.10 pg/mL
IL-12 cytokine concentration [1, 5]: 0 pg/mL
IL-13 cytokine concentration [1, 5]: 0 pg/mL
IL-17 cytokine concentration [1, 5]: 0 pg/mL
IL-22 cytokine concentration [1, 5]: 0 pg/mL
TNF-α cytokine concentration [1, 5]: 0 pg/mL
IL-1 cytokine concentration (primary murine T-cells; [6]): 64.89 pg/mL
IL-2 cytokine concentration (primary murine T-cells; [6]): 70.49 pg/mL
IL-4 cytokine concentration (primary murine T-cells; [6]): 61.11 pg/mL
IL-5 cytokine concentration (primary murine T-cells; [6]): 208.28 pg/mL
IL-6 cytokine concentration (primary murine T-cells; [6]): 108.76 pg/mL
IL-10 cytokine concentration (primary murine T-cells; [6]): 905.55 pg/mL
IL-13 cytokine concentration (primary murine T-cells; [6]): 0 pg/mL
IL-17 cytokine concentration (primary murine T-cells; [6]): 52.48 pg/mL
IL-21 cytokine concentration (primary murine T-cells; [6]): 0 pg/mL
IL-22 cytokine concentration (primary murine T-cells; [6]): 37.13 pg/mL
IL-27 cytokine concentration (primary murine T-cells; [6]): 21.29 pg/mL
TNF-α cytokine concentration (primary murine T-cells; [6]): 32.32 pg/mL
IFN-γ cytokine concentration (primary murine T-cells; [7]): 0 pg/mL
IL-1 cytokine concentration (primary murine T-cells; [7]): 50.19 pg/mL
IL-2 cytokine concentration (primary murine T-cells; [7]): 98.48 pg/mL
IL-4 cytokine concentration (primary murine T-cells; [7]): 64.23 pg/mL
IL-5 cytokine concentration (primary murine T-cells; [7]): 249.8 pg/mL
IL-6 cytokine concentration (primary murine T-cells; [7]): 88.47 pg/mL
IL-10 cytokine concentration (primary murine T-cells; [7]): 586.12 pg/mL
IL-13 cytokine concentration (primary murine T-cells; [7]): 0 pg/mL
IL-17 cytokine concentration (primary murine T-cells; [7]): 0 pg/mL
IL-21 cytokine concentration (primary murine T-cells; [7]): 0 pg/mL
IL-22 cytokine concentration (primary murine T-cells; [7]): 69.18 pg/mL
IL-27 cytokine concentration (primary murine T-cells; [7]): 84.69 pg/mL
TNF-α cytokine concentration (primary murine T-cells; [7]): 67.18 pg/mL
IFN-γ cytokine concentration (primary murine T-cells; [8]): 1777.98 pg/mL
IL-1 cytokine concentration (primary murine T-cells; [8]): 160.95 pg/mL
IL-2 cytokine concentration (primary murine T-cells; [8]): 97.41 pg/mL
IL-4 cytokine concentration (primary murine T-cells; [8]): 57.84 pg/mL
IL-5 cytokine concentration (primary murine T-cells; [8]): 198.45 pg/mL
IL-6 cytokine concentration (primary murine T-cells; [8]): 144.26 pg/mL
IL-10 cytokine concentration (primary murine T-cells; [8]): 899.74 pg/mL
IL-13 cytokine concentration (primary murine T-cells; [8]): 0 pg/mL
IL-17 cytokine concentration (primary murine T-cells; [8]): 76.12 pg/mL
IL-21 cytokine concentration (primary murine T-cells; [8]): 0 pg/mL
IL-22 cytokine concentration (primary murine T-cells; [8]): 97.01 pg/mL
IL-27 cytokine concentration (primary murine T-cells; [8]): 94.12 pg/mL
TNF-α cytokine concentration (primary murine T-cells; [8]): 36.25 pg/mL
